In PMC10226046, “Prodrug Strategies for the Development of β-L-5-((E)-2-Bromovinyl)-1-((2S,4S)-2-(hydroxymethyl)-1,3-(dioxolane-4-yl))uracil (L-BHDU) against Varicella Zoster Virus (VZV)” (Journal of Medicinal Chemistry, 2023):
Read-outs that look alike come from different tables or passages of the source.

How the values were obtained:
VZV-ORF57-Luc [1] = conditions: for EC50: cell-free VZV-ORF57-Luc, ARPE-19 cells, 72 hpi, bioluminescence imaging
[2] = Neutral red dye uptake cytotoxicity assay in ARPE-19 cells; conditions: human
VZV-ORF57-Luc [3] = test: microbe, parasite or virus in culture; conditions: Human alphaherpesvirus 3, ARPE-19, cell-free VZV-ORF57-Luc, ARPE-19 cells, 72 hpi, bioluminescence imaging
VZV-ORF57-Luc [4] = test: microbe, parasite or virus in culture; assay type: cell-based, Varicella zoster virus
VZV-ORF57-ΔTK = test: microbe, parasite or virus in culture; assay type: cell-based, Varicella zoster virus
ARPE-19 cells = test: Neutral red dye uptake cytotoxicity assay in ARPE-19 cells; conditions: 72 h, neutral red assay
VZV-ORF57-ΔTKTS = test: microbe, parasite or virus in culture; assay type: cell-based, Varicella zoster virus
VZV-ORF57-ΔTS = test: microbe, parasite or virus in culture; assay type: cell-based, Varicella zoster virus
VZV = conditions: cited from earlier work
in vitro = conditions: human
[5] = selectivity index = CC50/EC50, ARPE-19 cells
[6] = cell-associated VZV-ORF57-Luc, ARPE-19 cells, read-out: EC50
[7] = cell-associated VZV-ORF57-ΔTK, ARPE-19 cells, read-out: EC50
[8] = cell-associated VZV-ORF57-ΔTKTS, ARPE-19 cells, read-out: EC50
[9] = cell-associated VZV-ORF57-ΔTS, ARPE-19 cells, read-out: EC50
[10] = Human alphaherpesvirus 3, ARPE-19
[11] = cell-associated virus, ARPE-19 cells

Row | Molecule | SI (CC50/EC50) (VZV-ORF57-Luc [1]) | SI (CC50/EC50) (VZV-ORF57-Luc [1]; [5]) | CC50 at 72 h [2] | EC50 (VZV-ORF57-Luc [3]) | further results
1 | CC(C)(N)C(=O)OC[C@H]1OC[C@@H](n2cc(/C=C/Br)c(=O)[nH]c2=O)O1.Cl [L-BHDU-2-aminoisobutyric acid (24), L-BHDU-5′-O-2-aminoisobutyric Acid Ester Hydrochloride] | >2597 | >2597 | > 100 µM | 38.5 nM | –
2 | C[C@@H](N)C(=O)OC[C@H]1OC[C@@H](n2cc(/C=C/Br)c(=O)[nH]c2=O)O1.Cl [L-BHDU-L-alanine (15), L-BHDU-5′-O-L-alanyl Ester Hydrochloride] | >2959 | >2959 | > 100 µM | 33.8 nM | –
3 | Cl.NCC(=O)OC[C@H]1OC[C@@H](n2cc(/C=C/Br)c(=O)[nH]c2=O)O1 [L-BHDU-glycine (14), L-BHDU-5′-O-glycyl Ester Hydrochloride] | >2132 | >2132 | > 100 µM | 46.9 nM | –
4 | Cl.N[C@H](Cc1ccccc1)C(=O)OC[C@H]1OC[C@@H](n2cc(/C=C/Br)c(=O)[nH]c2=O)O1 [L-BHDU-L-phenylalanine (16), L-BHDU-5′-O-L-phenylalanyl Ester Hydrochloride] | >3484 | >3484 | > 100 µM | 28 nM | EC50 (VZV-ORF57-Luc [1]): 28.7 nM; SI (CC50/EC50) (VZV-ORF57-Luc [1]; selectivity index = CC50/EC50, ARPE-19 cells, listed as 16): > 3484
5 | L-BHDU-5′-[(2-octadecyloxyethyl)phosphate] [ODE-L-BHDU-MP (38)] | 339 | 339 | – | – | fold more potent compared to ACV (VZV-ORF57-Luc [4]; cell-associated VZV-ORF57-Luc): 9 fold; EC50 (VZV-ORF57-Luc [4]; [6]): 820 nM; EC50 (VZV-ORF57-ΔTK; [7]): > 2000 nM; EC50 (VZV-ORF57-Luc [1]): 100 nM; CC50 (ARPE-19 cells): 33.9 µM; EC50 (VZV-ORF57-ΔTKTS; [8]): > 2000 nM; EC50 (VZV-ORF57-ΔTS; [9]): 0.8 nM
6 | CC(C)[C@H](N)C(=O)OCCOCn1cnc2c(=O)[nH]c(N)nc21 [VACV, valacyclovir] | – | – | – | – | effect on VZV spread (VZV; 120 mg/kg/day, SCID-hu mouse): no effect; effect on VZV replication (VZV; SCID-hu mice): did not affect VZV replication
7 | Cl.NC(=O)CC[C@H](N)C(=O)OC[C@H]1OC[C@@H](n2cc(/C=C/Br)c(=O)[nH]c2=O)O1 [L-BHDU-L-glutamine (23), L-BHDU-5′-O-L-glutamine Ester Hydrochloride] | >794 | >794 | > 100 µM | 126 nM | –
8 | Cl.O=C(OC[C@H]1OC[C@@H](n2cc(/C=C/Br)c(=O)[nH]c2=O)O1)[C@@H]1CCCN1 [L-BHDU-L-proline (22), L-BHDU-5′-O-L-proline Ester Hydrochloride] | >1934 | >1934 | > 100 µM | 51.7 nM | –
9 | Nc1ccn(C[C@@H](CO)OCP(=O)(O)O)c(=O)n1 [cidofovir (CDV), cidofovir, reference compound] | – | >208 | > 100 µM | 482 nM | EC50 (VZV-ORF57-Luc [4]; [10]): 370 nM; EC50 (VZV-ORF57-ΔTK; [10]): 420 nM; activity against VZV-ORF57-ΔTK (in words) (VZV-ORF57-ΔTK; [11]): effective; EC50 (VZV-ORF57-ΔTKTS; [10]): 1050 nM; activity against VZV-ORF57-ΔTKTS (in words) (VZV-ORF57-ΔTKTS; [11]): effective; EC50 (VZV-ORF57-ΔTS; [10]): 10 nM
10 | Cl.N[C@@H](Cc1ccc(O)cc1)C(=O)OC[C@H]1OC[C@@H](n2cc(/C=C/Br)c(=O)[nH]c2=O)O1 [L-BHDU-L-tyrosine (26), L-BHDU-5′-O-L-tyrosine Ester Hydrochloride] | >826 | >826 | > 100 µM | 121 nM | –
11 | CC(C)(C)OC(=O)N[C@@H](Cc1ccc(O)cc1)C(=O)O [compound 27] | >2481 | – | – | – | –
12 | CC(C)OC(=O)C(Cc1ccccc1)NP(=O)(OC[C@H]1OC[C@@H](n2cc(/C=C/Br)c(=O)[nH]c2=O)O1)Oc1ccccc1 (stereo in doubt) [Isopropyl ((((2S,4S)-4-(5-((E)-2-Bromovinyl)-2,4-dioxo-3,4-dihydropyrimidin-1(2H)-yl)-1,3-dioxolan-2-yl)methoxy)(phenoxy)phosphoryl)-L-phenylalaninate] | 61 | 61 | – | 1530 nM | CC50 at 72 h (in vitro): 93.7 µM
13 | CC(C)[C@H](N)C(=O)OC[C@H]1OC[C@@H](n2cc(/C=C/Br)c(=O)[nH]c2=O)O1.Cl [L-BHDU-D-valine (18), L-BHDU-5′-O-D-valyl Ester Hydrochloride] | >709 | >709 | > 100 µM | 140 nM | EC50 (VZV-ORF57-Luc [1]): 141 nM
14 | CC[C@H](C)[C@H](N)C(=O)OC[C@H]1OC[C@@H](n2cc(/C=C/Br)c(=O)[nH]c2=O)O1.Cl [L-BHDU-L-isoleucine (21), L-BHDU-5′-O-L-isoleucine Ester Hydrochloride] | >1520 | >1520 | > 100 µM | 65.8 nM | –
15 | CC(C)C[C@H](N)C(=O)OC[C@H]1OC[C@@H](n2cc(/C=C/Br)c(=O)[nH]c2=O)O1.Cl [L-BHDU-L-leucine (20), L-BHDU-5′-O-L-leucine Ester Hydrochloride] | >2415 | >2415 | > 100 µM | 41.4 nM | –
16 | Nc1nc2c(ncn2COCCO)c(=O)[nH]1 [acyclovir (ACV), acyclovir, reference compound] | – | – | > 100 µM | – | –
17 | Cl.N[C@@H](Cc1c[nH]c2ccccc12)C(=O)OC[C@H]1OC[C@@H](n2cc(/C=C/Br)c(=O)[nH]c2=O)O1 [L-BHDU-L-tryptophan (19), L-BHDU-5′-O-L-tryptophan Ester Hydrochloride] | >1550 | >1550 | > 100 µM | 64.5 nM | –
18 | L-BHDU-5′-[(2-hexadecyloxyethyl)phosphate] [HDP-L-BHDU-MP (39)] | 35 | 35 | – | – | EC50 (VZV-ORF57-Luc [1]): 526 nM; EC50 (VZV-ORF57-Luc [1]; listed as 39): 530 nM; CC50 (ARPE-19 cells): 18.5 µM
19 | CC(C)OC(=O)C(C)NP(=O)(OC[C@H]1OC[C@@H](n2cc(/C=C/Br)c(=O)[nH]c2=O)O1)Oc1ccccc1 (stereo in doubt) [Isopropyl ((((2S,4S)-4-(5-((E)-2-Bromovinyl)-2,4-dioxo-3,4-dihydropyrimidin-1(2H)-yl)-1,3-dioxolan-2-yl)methoxy)(phenoxy)phosphoryl)-L-alaninate] | >206 | – | – | 1690 nM | CC50 (in vitro): > 100 µM
20 | Cl.NCCCC[C@H](N)C(=O)OC[C@H]1OC[C@@H](n2cc(/C=C/Br)c(=O)[nH]c2=O)O1 [L-BHDU-L-lysine (25), L-BHDU-5′-O-L-lysine Ester Hydrochloride] | – | >2481 | > 100 µM | 40.3 nM | –
21 | Bis(POC) Prodrug of L-BHDU-MP [POC-L-BHDU-MP (47)] | >2915 | >2915 | – | – | EC50 (VZV-ORF57-Luc [4]; [6]): 40 nM; EC50 (VZV-ORF57-ΔTK; [7]): > 2000 nM; EC50 (VZV-ORF57-Luc [1]): 34.3 nM; EC50 (VZV-ORF57-Luc [1]; listed as POC-L-BHDU-MP): 34 nM; SI (CC50/EC50) (VZV-ORF57-Luc [1]; selectivity index = CC50/EC50, ARPE-19 cells, listed as POC-L-BHDU-MP): > 2915; CC50 (ARPE-19 cells): > 100 µM; EC50 (VZV-ORF57-ΔTKTS; [8]): > 2000 nM; EC50 (VZV-ORF57-ΔTS; [9]): 8.4 nM
